Positions of bridges follow the written chain, without caps; N, C: chain ends. No end group written: not given here.
T1: RANKL (Homo sapiens, UniProt O14788)
T1 sequence (O14788 140-317 limits assumed): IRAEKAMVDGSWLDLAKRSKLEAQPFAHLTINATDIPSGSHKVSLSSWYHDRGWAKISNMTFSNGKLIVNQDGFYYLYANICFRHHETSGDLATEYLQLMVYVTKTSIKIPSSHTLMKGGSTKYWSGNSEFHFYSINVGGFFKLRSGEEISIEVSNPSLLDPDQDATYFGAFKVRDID


Key:
[1] = test system: human mesenchymal stem cells; experiment: Induction of human mesenchymal stem cell differentiation, alcian blue staining; format: cell-based; conditions: 100 μM peptide D, 14 days
Description: Human mesenchymal stem cells were seeded at 5×10^4 cells/well in 48-well plate (IWAKI). The culture supernatant was removed 24 hours later, the medium was replaced with a chondrocyte differentiation induction medium (Lonza), and the medium was replaced with fresh medium every 3 or 4 days. Simultaneously, peptide D was added at 100 μM (the group to which peptide D was administered). Further, a group cultured with 100 μM peptide D and 1 ng/ml BMP-4 (R&D) was examined. BMP-4 was added at 1 ng/ml as a positive control group. After 14 days, these cells were fixed in 10% neutral buffered formalin. After fixation, the cells were stained with an alcian blue solution for 4 hours, and the culture plate was photographed. Moreover the pigment was eluted using a 6M guanidinium hydrochloride solution from the culture plate. The eluate (100 μl) was moved to a new 96-well plate, and measured the absorbance at 620 nm by microplate reader (BMG Labtech).

ATDC5 cells [2] = experiment: Induction of differentiation of ATDC5 cells by peptide D, alcian blue staining; format: cell-based, mouse; conditions: peptide D 25 μM and 100 μM, 14 days
Description: The culture cells (ATDC5) derived from a mouse chondrogenic EC (embryonal carcinoma) cell was provided by Professor Hiraki and Associate Professor Shukunami in the Institute for Frontier Medical Sciences, Kyoto University. DMEM/F-12 medium (Cellgro) containing 5% FBS (Nichirei) was used as a maintenance medium.
ATDC5 cells were seeded at 2×10^4 cells/well in a 48-well plate (IWAKI). The culture supernatant was removed 24 hours later, and DMEM/F-12 medium containing 10 ng/ml insulin (Roche) and transferrin (Roche) were added. The medium was replaced with fresh medium every 3 or 4 days.
Simultaneously, peptide D was added at 25 μM and 100 μM. One ng/ml and 5 ng/ml BMP-4 (R&D) were added as positive control. In order to examine the synergistic effects of peptide D and BMP-4, further, 25 μM peptide D and 1 ng/ml BMP-4 were added. After 14 days, these cells were fixed in 10% neutral buffered formalin. After fixation, the cells were stained with an alcian blue solution for 4 hours, and the culture plate was photographed.

ATDC5 cells [3] = experiment: RT-PCR analysis of chondrocytic factors in ATDC5 cells; format: cell-based, mouse; conditions: 200 μM peptide D
Description: Mouse prechondrocytes, ATDC5 cells (5×10^4 cells) were seeded in a 6-cm dish (IWAKI) and cultured in the presence of a cartilage differentiation induction medium containing 10 ng/ml insulin and transferrin for 7 days and for 14 days. The peptide D group was added at 200 μM peptide D, and 5 ng/ml of BMP-4 was added to the positive control group. The cells were washed with PBS after culture, the cells were dissolved in 1 ml TRIZOL […], and the solution was obtained. After 5 min at room temperature, 0.2 ml of chloroform (Wako) was added, followed by vigorous inversion mixing and centrifugation at 4° C. and 12,000×g for 15 minutes. The supernatant was collected in a new tube, and was added to 0.5 ml of isopropanol (Nacalai), followed by inversion mixing. The resultant was left at room temperature for 10 minutes and centrifuged at 4° C. and 12,000×g for 10 minutes. The supernatant was discarded, and the resultant was added to 70% ethanol. After dry-up, RNA was dissolved in 87.5 μl of DEPC water, 10 μl of RDD buffer and 2.5 μl of DNase, and the mixture was allowed to stand at room temperature for 10 minutes. The RNA sample was cleaned by the RNeasy MinElute Cleanup Kit (Qiagen), and the concentration of the obtained RNA was measured using NanoDrop. The obtained RNA (250 ng) was electrophoresed on 1% agarose gel, checked degradation of RNA, and undegradated RNA samples (250 ng each) were used in RT-PCR. RT-PCR was carried out using the ThermoScript RT-PCR System (Invitrogen) and random primers.
After cDNA was synthesized, PCR was carried out using primers specific for the α1 chains of mouse type II collagen (mCol 2α1), mouse type X collagen (mCol X), and mouse aggrecan (mAggrecan). PCR was carried out using mouse GAPDH-specific primers for standardization. The sequences of PCR primers used are shown below. […]
The sample obtained after PCR was electrophoresed on 2% agarose gel, and a specific band was detected by UV with the use of ethidium bromide staining (FIG. 3A and FIG. 4A). The obtained image was analyzed using the CSAnalyzer (ATTO).

ATDC5 cells [4] = experiment: GeneChip analysis using ATDC5 cells; format: cell-based, mouse; conditions: 100 μM peptide D, signal ratio to control group
Description: The peptide described in Example 1 was used. The ATDC5 cells described in Example 2 were used as cultured cells. The ATDC5 cells were seeded in a 6-cm dish (IWAKI) at 1×10^5 cells/well. The culture supernatant was removed 72 hours later, and DMEM/F-12 medium containing 10 ng/ml insulin (Roche) and 10 ng/ml transferrin (Roche) was added. The medium was replaced with fresh medium every 3 or 4 days.
Simultaneously, peptide D was added at 100 μM. The medium was removed 4 days and 7 days after the induction of differentiation. The cells were washed with PBS, and RNA of these cells was obtained using the Absolutely RNA Miniprep Kit (Stratagene) 7 days after the induction of differentiation. The extracted RNA was subjected to GeneChip analysis (Affimetrix, Kurabo).

[5] = test system: human mesenchymal stem cells; experiment: Three-dimensional culture using human mesenchymal stem cells; format: cell-based
Description: Chondrocytes are three-dimensionally cultured induce […]. Three dimensional culture system relatively reflected the natural conditions. Human mesenchymal stem cells were seeded at 2.5×10^5 cells in 15-ml tubes (TPP) and the cells were collected by centrifuged at 1,000 rpm and room temperature for 4 minutes. The supernatant was removed and the medium was replaced with 0.5 ml chondrocyte differentiation induction medium (Lonza) with 10 ng/ml TGF-β3 (R&D). The medium was replaced with fresh medium every 3 or 4 days. Simultaneously, peptide D was added at 50 μM and at 150 μM (i.e., a low-dose peptide D group and a high-dose peptide D group). After 14 days, the cells were fixed in 4% PFA (Wako), photographed under a microscope (FIG. 8). A pellet was embedded in paraffin, and the sample slide was prepared, followed by alcian blue staining and safranin 0 staining (FIG. 9).
2.5×10^5 human mesenchymal stem cells were cultured in the presence of 40 μM peptide D and 10 ng/ml TGF-β3 with cartilage differentiation induction medium for 21 days. After the pellets were fixed in 4% PFA, the pellet was photographed under a microscope (FIG. 10). After the pellet had been embedded in paraffin, the sample slide was prepared and stained with alcian blue and safranin 0 (FIG. 11).
After the pellets were fixed in 4% PFA, the pellet was photographed under a microscope (FIG. 12). After the pellet had been embedded in paraffin, the sample slide was prepared and stained with alcian blue and safranin O (FIG. 13).

[6] = test system: human mesenchymal stem cells; experiment: GeneChip analysis using human mesenchymal stem cells; format: cell-based; conditions: for aggrecan expression level: 10 ng/ml TGF-β3; for expression levels of Sox9 compared with the control group: 24 hours and 96 hours after the addition
Description: Human mesenchymal stem cells were seeded in a 6-well plate (Nunc) at 1×10^5 cells/well, the culture supernatant was discarded 96 hours later, and 2 ml of a cartilage differentiation induction medium was added. The control group, the 40 μM peptide D group, the 10 ng/ml TGF-β3 group, and the 40 μM peptide D+10 ng/ml TGFβ3 group were prepared. Each culture medium was replaced 24 hours after the stimulation. The cells were dissolved in 1 ml of TRIZOL (Invitrogen) 96 hours after the stimulation, and RNA was isolated. The isolated RNA was used for GeneChip analysis (Affimetrix, Kurabo).

RANKL = biological target: T1, RANKL; conditions: Aoki et al., J. Clin. Invest., 116: 1525, 2006; cited from earlier work
[7] = peptide D 50 μM and 150 μM, medium with 10 ng/ml TGF-β3, 14 days
[8] = 24 hours after the addition, 40 μM peptide D
[9] = 96 hours after the addition, 40 μM peptide D

Row | Molecule | absorbance of the eluate at 620 nm (alcian blue pigment) versus control group [1] | alcian blue positive cells compared with control ([1]; chondrocyte differentiation induction medium) | number of alcian blue positive nodules (ATDC5 cells [2]) | aggrecan expression level (ATDC5 cells [3]; day 7, standardized with GAPDH) | expression level of the α chain of type II collagen compared with the control (ATDC5 cells [3]; day 7, standardized with GAPDH) | expression level of type X collagen (ATDC5 cells [3]; day 14, standardized with GAPDH) | expression level of BMP-7 (ATDC5 cells [4]) | expression levels of CTGF, PDGF, TGFβ1, fibromodulin and receptors (PDGFR1, FGFR2) (ATDC5 cells [4]) | expression levels of the α chains of type II, IX, and XI collagens (ATDC5 cells [4]) | expression of asporin, IGFbp2, IGFbp6, and ADAMTS5 (ATDC5 cells [4]) | alcian blue or safranin O staining of 3-dimensional pellets [5, 7] | pellet size [5, 7] | IGF2R and versican expression ([6]; 40 μM peptide D, 24 hours later) | IGF-1, LTBP2, and TGFβ1 expression levels ([6]; 40 μM peptide D, 96 hours later) | aggrecan expression level [6, 8] | expression levels of Sox9 compared with the control group [6] | aggrecan expression level [6, 9] | binding to RANKL (RANKL) | pellet size ([5]; 21 days, 40 μM peptide D, 10 ng/ml TGF-β3, 100 ng/ml BMP-2)
1 | peptide D: cyclic peptide of 9 amino acid residues, SEQ ID NO: 7, two cysteine residues bound by a disulfide bond; binds to RANKL (YCWSQYLCY; disulfide 2-8 (inferred)) | significant increase | increased | increased in a dose dependent manner | increased | significantly increased | particularly increased | increased | increased | increased | inhibited | positive stained | increased the pellet size in a dose dependent manner | elevated | elevated | elevated | elevated | elevated expression level was maintained | binds to RANKL | –
2 | TGF-β3: TGF-β3 (R&D), protein belonging to the TGF-β superfamily (protein, UniProt P10600 301-412, looked up) Transforming growth factor …: ALDTNYCFRNLEENCCVRPLYIDFRQDLGWKWVHEPKGYYANFCSGPCPYLRSADTTHSTVLGLYNTLNPEASASPCCVPQDLEPLTILYYVGRTPKVEQLSNMVVKSCKCS | – | – | – | – | – | – | – | – | – | – | – | – | – | – | equivalent to that of the control group | elevated | lower than that of the control group | – | did not change
